Assay results: US20260364030A1, “NOVEL SELECTIVE INHIBITORS OF LYSYL OXIDASES” (Syntara Limited, priority 2022, published 2026)

Legend:
LOXL1 = molecular target: T1, LOXL1 (Homo sapiens, UniProt Q08397); assay: Time-dependent inhibition of LOXL1, Amplex Red oxidation assay; type: biochemical; conditions: for IC50: 37 °C
T1 sequence (Q08397 96-574): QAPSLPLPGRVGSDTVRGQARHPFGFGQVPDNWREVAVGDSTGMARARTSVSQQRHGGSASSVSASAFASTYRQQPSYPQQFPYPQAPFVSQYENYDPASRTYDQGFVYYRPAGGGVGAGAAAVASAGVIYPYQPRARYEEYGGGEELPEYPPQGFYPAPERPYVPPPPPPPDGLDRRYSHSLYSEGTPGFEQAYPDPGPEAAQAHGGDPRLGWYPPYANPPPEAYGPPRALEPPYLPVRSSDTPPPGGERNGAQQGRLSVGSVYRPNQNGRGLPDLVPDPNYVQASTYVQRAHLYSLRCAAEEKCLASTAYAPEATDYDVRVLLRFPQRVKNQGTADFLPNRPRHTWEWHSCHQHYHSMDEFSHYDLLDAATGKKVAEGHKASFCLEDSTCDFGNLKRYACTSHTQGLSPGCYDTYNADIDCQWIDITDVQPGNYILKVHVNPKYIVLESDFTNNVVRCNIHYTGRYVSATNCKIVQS
Protocol: The time dependent inhibitory effects of the Compound 1 of the present invention were tested against the given LOXL1 preparation and LOXL2 preparation using a method based on the detection of hydrogen peroxide with an Amplex Red oxidation assay [Zhou et al. 1997]. The assay was developed for use in either 384 or 96 well format. Briefly, in a standard black, clear bottom 384 well plate assay 25 µL of a dilution of any of the isoenzymes and orthologues in 1.2 M urea, 50 mM sodium borate buffer (pH 8.2) were added into each well in the presence of […] and 0.5 mM pargyline (to inhibit SSAO and MAO-B and MAO-A, respectively; not necessary if the enzyme is from a recombinant or purified form). Test compound (Compound 1) was dissolved in DMSO and tested in a Concentration Response Curve (CRC) with 11 data points, typically in the micromolar or nanomolar range after incubation with the enzyme for different time points at 37 °C. 25 μL of a reaction mixture containing twice the KM concentration of putrescine (Sigma Aldrich, e.g. 20 mM for LOXL1 or 10 mM for LOXL2), 120 µM Amplex Red (Thermo Fisher Scientific) and 1.5 U/mL horseradish peroxidase (Sigma Aldrich) prepared in 1.2 M urea, 50 mM sodium borate buffer (pH 8.2) were then added to the corresponding wells. The fluorescence (RFU) was read every 2.5 min for 30 min at 37 °C, excitation 544 nm and emission 590 nm (Optima; BMG labtech). The slope/min of the kinetics for each well was calculated using MARS data analysis software (BMG labtech) and this value was used to deduce the IC50 value (Dotmatics).

[1] = test system: Salmonella typhimurium TA100; assay: Bacterial reverse mutation test, preliminary toxicity test (direct plate incorporation)
Protocol: In the preliminary toxicity test, for selection of test doses for the mutation assay, Salmonella typhimurium, TA100 was exposed to the test item at 39.0625, 78.125, 156.25, 312.5, 625, 1250, 2500 and 5000 μg/plate along with a DMSO control using direct plate incorporation.

skin fibrosis = assay: Mouse model of sclerosis (bleomycin-induced skin fibrosis); type: in vivo, male C57BL/6 mouse; conditions: topical formulation, various concentrations, from day 3; histology after 21 days; FIG. 3, ****=P≤0.0001
Protocol: Subcutaneous bleomycin (0.1 U/kg) was administered every second day (for 21 days total) to male C57BL/6 to induce skin fibrosis as a model of sclerosis. The lesions were treated, from day 3, with either Vehicle or various concentrations of Compound 1 in a topical formulation. Histology was completed after 21 days.

IC50 (LOXL1; 30′ incubation): 9.47 µM | IC50 (LOXL1; 2 h incubation): 1.7 µM | IC50 (LOXL1; 4 h incubation): 0.92 µM
Structure (SMILES): NC/C(=C\F)CS(=O)(=O)c1ccccc1 [Compound 1, (E)-3-fluoro-2-((phenylsulfonyl)methyl)prop-2-en-1-amine]
Time dependent LOXL1 inhibition (LOXL1; apparent potency increasing with time): time dependent LOXL1 and LOXL2 inhibition | Toxicity to the tester strain (bacterial background lawn, revertant colony counts) ([1]; 39.0625-5000 μg/plate, presence and absence of metabolic activation): did not exhibit toxicity to the tester strain | Precipitation on the basal agar plates ([1]; up to 5000 μg/plate, presence or absence of metabolic activation): did not precipitate on the basal agar plates | Average collagen score (histology) (skin fibrosis): significant improvement in the average collagen score
